Assay [1] concerns human multiple myeloma cell line, OPM-2. The assay is described as follows: Cell viability assay (OPM-2 10 FBS), CellTiter-Glo. The format is cell-based. In short, it runs like this: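 3000 cells/well, RPMI 1640 + 10% FBS; serial compound dilutions, 16 h, 37 °C/5% CO2.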
In assay [2] the target is recombinant human Mcl-1 (residues 171-327) / Bim interaction (Homo sapiens (Human), UniProt Q07820). The experiment in a line: biochemical. The format is binding. Particulars: read-out: Mcl-1 HTRF IC50.
recombinant human Mcl-1 (residues 171-327) / Bim interaction, sequence (Q07820 171-327): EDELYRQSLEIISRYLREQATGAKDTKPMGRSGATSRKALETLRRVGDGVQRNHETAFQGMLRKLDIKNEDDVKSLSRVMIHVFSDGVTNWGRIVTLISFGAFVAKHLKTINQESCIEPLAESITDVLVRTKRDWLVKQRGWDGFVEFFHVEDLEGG
Setting [3] is: TR-FRET, Mcl-1(171-327) / biotin-Bim (51-76).
Setting [4] is: Homo sapiens, OPM-2, 16 h, read-out: OPM-2 10% FBS IC50 IP, OPM-2 cells, 10% FBS, 16 h incubation.
The mark [5] stands for this setting: 0.1 nM Mcl-1(171-327), 0.05 nM biotin-Bim (51-76).
The mark [6] stands for this setting: Homo sapiens, OPM-2, 16 h, read-out: OPM-2 10% FBS IC50 IP, OPM-2 cells, 10% FBS, 16 h, CellTiter-Glo.

IC50 data for 14 molecules are collected here from US10821115B2, “Compounds that inhibit Mcl-1 protein” (priority 2017, dated 2020).

Where two headings read alike, the source gives them in different places. Where only a bound is given, the exact number is not on record here.

Consider `CO[C@]1(C#CCN2CCOCC2)/C=C/C[C@H](C)[C@@H](C)S(=O)(=O)NC(=O)c2ccc3c(c2)N(C[C@@H]2CC[C@H]21)C[C@@]1(CCCc2cc(Cl)ccc21)CO3` [Example 100409, (1S,3′R,6′R,7′R,8′E,11′S,12′R)-6-chloro-7′-methoxy-11′,12′-dimethyl-7′-(3-(4-morpholinyl)-1-propyn-1-yl)-3,4-dihydro-2H,15′H-spiro[naphthalene-1,22′-[20]oxa[13]thia[1,14]diazatetracyclo [14.7.2.0~3,6~.0~19,24~]pentacosa[8,16,18,24]tetraen]-15′-one 13′,13′-dioxide], for which the IC50 was 206 nM in assay [1] (read-out: OPM-2 10% FBS IC50 IP, OPM-2 cells, 10% FBS, 16 h, CellTiter-Glo) and 0.124 nM in assay [2] (setting [3]).
Consider `CC[C@@H]1CC/C=C/[C@](CN2CCN(C)CC2)(OC)[C@@H]2CC[C@H]2CN2C[C@@]3(CCCc4cc(Cl)ccc43)COc3ccc(cc32)C(=O)NS1(=O)=O` [Example 31, (1S,3′R,6′R,7′S,8′E,12′R)-6-chloro-12′-ethyl-7′-methoxy-7′-((4-methyl-1-piperazinyl)methyl)-3,4-dihydro-2H,15′H-spiro[naphthalene-1,22′-[20]oxa[13]thia[1,14]diazatetracyclo [14.7.2.0~3,6~.0~19,24~]pentacosa[8,16,18,24]tetraen]-15′-one 13′,13′-dioxide], for which the IC50 in assay [1] (setting [4]) was 216 nM; in assay [2] (setting [5]), 0.184 nM.
The matching figures for `CO[C@]1(CN2CCN(CCS(C)(=O)=O)CC2)/C=C/C[C@H](C)[C@@H](C)S(=O)(=O)NC(=O)c2ccc3c(c2)N(C[C@@H]2CC[C@H]21)C[C@@]1(CCCc2cc(Cl)ccc21)CO3` [Example 73, (1S,3′R,6′R,7′R,8′E,11′S,12′R)-6-chloro-7′-methoxy-11′,12′-dimethyl-7′-((4-(2-(methylsulfonyl)ethyl)-1-piperazinyl)methyl)-3,4-dihydro-2H,15′H-spiro[naphthalene-1,22′-[20]oxa[13]thia[1,14]diazatetracyclo [14.7.2.0~3,6~.0~19,24~]pentacosa[8,16,18,24]tetraen]-15′-one 13′,13′-dioxide]: 129 nM and 0.609 nM.
Taken in the same sequence, the figures for `CO[C@@]1(CN2CCN3C(=O)OC[C@@H]3C2)/C=C/C[C@H](C)[C@@H](C)S(=O)(=O)NC(=O)c2ccc3c(c2)N(C[C@@H]2CC[C@H]21)C[C@@]1(CCCc2cc(Cl)ccc21)CO3` [Example 63, (1S,3′R,6′R,7′S,8′E,11′S,12′R)-6-chloro-7′-methoxy-11′,12′-dimethyl-7′-(((8aS)-3-oxotetrahydro[1,3]oxazolo[3,4-a]pyrazin-7(1H)-yl)methyl)-3,4-dihydro-2H,15′H-spiro[naphthalene-1,22′-[20]oxa[13]thia[1,14]diazatetracyclo [14.7.2.0~3,6~.0~19,24~]pentacosa[8,16,18,24]tetraen]-15′-one 13′,13′-dioxide] were 582 nM and 0.173 nM.
Regarding `CO[C@@]1(CN2CCN(CC3OCCO3)CC2)/C=C/C[C@H](C)[C@@H](C)S(=O)(=O)NC(=O)c2ccc3c(c2)N(C[C@@H]2CC[C@H]21)C[C@@]1(CCCc2cc(Cl)ccc21)CO3` [Example 309, (1S,3′R,6′R,7′S,8′E,11′S,12′R)-6-chloro-7′-((4-(1,3-dioxolan-2-ylmethyl)-1-piperazinyl)methyl)-7′-methoxy-11′,12′-dimethyl-3,4-dihydro-2H,15′H-spiro[naphthalene-1,22′-[20]oxa[13]thia[1,14]diazatetracyclo [14.7.2.0~3,6~.0~19,24~]pentacosa[8,16,18,24]tetraen]-15′-one 13′,13′-dioxide], the IC50 is 64 nM in assay [1] (setting [4]) and 0.215 nM in assay [2] (setting [5]).
The matching figures for `CO[C@@]1(CN2CCN(c3ncccn3)CC2)/C=C/C[C@H](C)[C@@H](C)S(=O)(=O)NC(=O)c2ccc3c(c2)N(C[C@@H]2CC[C@H]21)C[C@@]1(CCCc2cc(Cl)ccc21)CO3` [Example 256, (1S,3′R,6′R,7′S,8′E,11′S,12′R)-6-chloro-7′-methoxy-11′,12′-dimethyl-7′-((4-(2-pyrimidinyl)-1-piperazinyl)methyl)-3,4-dihydro-2H,15′H-spiro[naphthalene-1,22′-[20]oxa[13]thia[1,14]diazatetracyclo [14.7.2.0~3,6~.0~19,24~]pentacosa[8,16,18,24]tetraen]-15′-one 13′,13′-dioxide]: 1640 nM and 0.433 nM.
`CO[C@@]1(CN2CC(=O)N3CCCC[C@@H]3C2)/C=C/C[C@H](C)[C@@H](C)S(=O)(=O)NC(=O)c2ccc3c(c2)N(C[C@@H]2CC[C@H]21)C[C@@]1(CCCc2cc(Cl)ccc21)CO3` [Example 150, (1S,3′R,6′R,7′S,8′E,11′S,12′R)-6-chloro-7′-methoxy-11′,12′-dimethyl-7′-(((9aR)-4-oxooctahydro-2H-pyrido[1,2-a]pyrazin-2-yl)methyl)-3,4-dihydro-2H,15′H-spiro[naphthalene-1,22′-[20]oxa[13]thia[1,14]diazatetracyclo [14.7.2.0~3,6~.0~19,24~]pentacosa[8,16,18,24]tetraen]-15′-one 13′,13′-dioxide]: the values for the IC50 in assay [1] (setting [4]) and in assay [2] (setting [5]) were 245 nM and 0.193 nM, respectively.
Turning to `CO[C@@]1(CC(=O)O)/C=C/C[C@H](C)[C@@H](C)S(=O)(=O)NC(=O)c2ccc3c(c2)N(C[C@@H]2CC[C@H]21)C[C@@]1(CCCc2cc(Cl)ccc21)CO3` [Example 100307, ((1S,3′R,6′R,7′S,8′E,11′S,12′R)-6-chloro-7′-methoxy-11′,12′-dimethyl-13′,13′-dioxido-15′-oxo-3,4-dihydro-2H-spiro[naphthalene-1,22′-[20]oxa[13]thia[1,14]diazatetracyclo [14.7.2.0~3,6~.0~19,24~]pentacosa[8,16,18,24]tetraen]-7′-yl)acetic acid], the figures for the IC50 in assay [1] (setting [6]) and in assay [2] (setting [3]) were 1030 nM and 0.049 nM, respectively.
As for `CO[C@@]1(CC(=O)c2ccccn2)/C=C/C[C@H](C)[C@@H](C)S(=O)(=O)NC(=O)c2ccc3c(c2)N(C[C@@H]2CC[C@H]21)C[C@@]1(CCCc2cc(Cl)ccc21)CO3` [Example 100491, (1S,3′R,6′R,7′S,8′E,11′S,12′R)-6-chloro-7′-methoxy-11′,12′-dimethyl-7′-(2-oxo-2-(2-pyridinyl)ethyl)-3,4-dihydro-2H,15′H-spiro[naphthalene-1,22′-[20]oxa[13]thia[1,14]diazatetracyclo [14.7.2.0~3,6~.0~19,24~]pentacosa[8,16,18,24]tetraen]-15′-one 13′,13′-dioxide], the IC50 in assay [1] (setting [6]) stood at 308 nM; in assay [2] (setting [3]), 0.208 nM.
Turning to `CO[C@@]1(CN2CCC3(CCOCC3)CC2)/C=C/C[C@H](C)[C@@H](C)S(=O)(=O)NC(=O)c2ccc3c(c2)N(C[C@@H]2CC[C@H]21)C[C@@]1(CCCc2cc(Cl)ccc21)CO3` [Example 264, (1S,3′R,6′R,7′S,8′E,11′S,12′R)-6-chloro-7′-methoxy-11′,12′-dimethyl-7′-(3-oxa-9-azaspiro[5.5]undec-9-ylmethyl)-3,4-dihydro-2H,15′H-spiro[naphthalene-1,22′-[20]oxa[13]thia[1,14]diazatetracyclo [14.7.2.0~3,6~.0~19,24~]pentacosa[8,16,18,24]tetraen]-15′-one 13′,13′-dioxide], the results for the IC50 in assay [1] (setting [4]) and in assay [2] (setting [5]) were 771 nM and 0.396 nM, respectively.
As to `CO[C@]1(CCO)/C=C/C[C@H](C)[C@@H](C)S(=O)(=O)NC(=O)c2ccc3c(c2)N(C[C@@H]2CC[C@H]21)C[C@@]1(CCCc2cc(Cl)ccc21)CO3` [Example 100217, (1S,3′R,6′R,7′R,8′E,11′S,12′R)-6-chloro-7′-(2-hydroxyethyl)-7′-methoxy-11′,12′-dimethyl-3,4-dihydro-2H,15′H-spiro[naphthalene-1,22′-[20]oxa[13]thia[1,14]diazatetracyclo [14.7.2.0~3,6~.0~19,24~]pentacosa[8,16,18,24]tetraen]-15′-one 13′,13′-dioxide], the IC50 stood at 130 nM in assay [1] (setting [6]) and 0.183 nM in assay [2] (setting [3]).
Take “(1 S,3′R,6′R,7′R,8′E,11′S,12′R)-6-chloro-7′-methoxy-11′-methyl-12′-(2-(((2-methyl-2-propanyl)(diphenyl)silyl)oxy)ethyl)-7′-((9aR)-octahydro-2H-pyrido[1,2-a]pyrazin-2-ylmethyl)-3,4-dihydro-2H, 15′H-spiro[naphthalene-1,22′-[20]oxa[13]thia[1,14]diazatetracyclo[14.7.2.0-3,6˜.0˜19,24˜]pentacosa[8,16,18,24]tetraen]-15′-one 13′,13′-dioxide [Example 359]”: the IC50 in assay [1] (read-out: OPM-2 10% FBS IC50 IP, OPM-2 cells, 10% FBS, 16 h incubation) was over 33300 nM; in assay [2] (setting [5]) it was 2.08 nM.
`C[C@@H]1[C@@H](C)CCC[C@@](O)(CC[S@@+](C)[O-])[C@@H]2CC[C@H]2CN2C[C@@]3(CCCc4cc(Cl)ccc43)COc3ccc(cc32)C(=O)NS1(=O)=O` [Example 100329, (1S,3′R,6′R,7′R,11′S,12′R)-6-chloro-7′-hydroxy-11′,12′-dimethyl-7′-(2-((R)-methylsulfinyl)ethyl)-3,4-dihydro-2H,15′H-spiro[naphthalene-1,22′-[20]oxa[13]thia[1,14]diazatetracyclo [14.7.2.0~3,6~.0~19,24~]pentacosa[16,18,24]trien]-15′-one 13′,13′-dioxide]: the IC50 in assay [1] (setting [6]) was determined as 1560 nM; in assay [2] (setting [3]), 5.02 nM.
`C[C@@H]1[C@@H](C)CCC[C@](O)(Cc2ccccc2)[C@@H]2CC[C@H]2CN2C[C@@]3(CCCc4cc(Cl)ccc43)COc3ccc(cc32)C(=O)NS1(=O)=O` (single isomer, unassigned) [Example 100319]: the IC50 in assay [1] (setting [6]) came to 506 nM; in assay [2] (setting [3]), 0.126 nM.
